Reference: patent US8569336B2, “Compounds for the treatment of inflammatory disorders” (priority 2008, dated 2013)
Like-named read-outs stand apart in the source and are kept apart here.

Key:
[1] = biological target: T1, purified catalytic domain of recombinant human TACE (rhTACEc) (Homo sapiens, UniProt P78536, N452Q/S266A); assay: TACE kinetic assay: cleavage of internally quenched peptide substrate TNF-FRET 2 (Ki); format: biochemical; details: TNF-FRET 2 substrate
T1 construct: 6xHis (C); made in house; host or cells: baculovirus/Hi5 insect cells

[2] = system: TNF-α production from human whole blood; assay: Inhibition of TNF-α production from human whole blood (hWBA), LPS stimulated, ELISA; format: cell-based; details: Homo sapiens
[3] = 3.5 h, human whole blood diluted 1:1, LPS stimulated, 3.5 h, TNF-α by ELISA, read-out: hWBA (IC50)
[4] = LPS-stimulated human whole blood, TNF-α by ELISA, read-out: hWBA (IC50)
[5] = human whole blood diluted 1:1, LPS stimulated, TNF-α by ELISA, read-out: hWBA (IC50)

T1 sequence (P78536 215-477 S266A/N452Q): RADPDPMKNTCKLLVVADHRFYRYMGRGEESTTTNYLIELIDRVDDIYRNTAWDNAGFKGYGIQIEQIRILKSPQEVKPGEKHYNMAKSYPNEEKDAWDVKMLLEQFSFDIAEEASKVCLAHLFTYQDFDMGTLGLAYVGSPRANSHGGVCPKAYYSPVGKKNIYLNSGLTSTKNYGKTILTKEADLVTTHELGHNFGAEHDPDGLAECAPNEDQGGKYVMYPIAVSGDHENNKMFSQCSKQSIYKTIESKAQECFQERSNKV

Row | SMILES | Ki ([1]; read-out: Ki) [µM] | IC50 [2, 4] [µM] | IC50 [2, 5] [µM] | other results
1 | COC(=O)c1cc2cc([C@]3(CN4Cc5ccc(OC)cc5C4=O)NC(=O)NC3=O)oc2cc1F [Compound 1271] | 0.00045 |  |  | IC50 [2, 3]: 1.05 µM
2 | COc1ccc2c(c1)C(=O)N(C[C@@]1(c3cc4nc(C(=O)NC5CC5)ccc4o3)NC(=O)NC1=O)C2 [Compound 1926] | 0.00012 | 0.367 |  | 
3 | COc1ccc2c(c1)C(=O)N(C[C@@]1(c3cc4nc(-c5c(C)n[nH]c5C)ccc4o3)NC(=O)NC1=O)C2 [Compound 2101] | 0.00014 |  |  | IC50 [2, 3]: 0.203 µM
4 | COc1ccc2c(c1)C(=O)N(C[C@@]1(c3cc4cc(-c5c(N)noc5C)ccc4o3)NC(=O)NC1=O)C2 [Compound 2261] | 0.000347 |  |  | IC50 [2, 3]: 0.515 µM
5 | COc1ccc2c(c1)C(=O)N(C[C@@]1(c3cc4nc(N5CCNC5=O)ccc4o3)NC(=O)NC1=O)C2 [Compound 2127] | 0.000435 |  |  | IC50 [2, 3]: 0.221 µM
6 | COC(=O)c1ccc2oc([C@]3(CN4Cc5ccc(OC)cc5C4=O)NC(=O)NC3=O)cc2n1 [Compound 1923] |  | 0.339 |  | 
7 | COc1ccc2c(c1)C(=O)N(C[C@@]1(c3cc4nc(C(=O)NCCN(C)C)ccc4o3)NC(=O)NC1=O)C2 [Compound 2466] | 0.000867 |  | 0.567 | 
8 | COc1ccc2c(c1F)C(=O)N(C[C@@]1(c3cc4ccc5c(c4o3)CNC5=O)NC(=O)NC1=O)C2 [Compound 2498] | 0.00121 |  | 0.166 | 
9 | COc1ccc2c(c1)C(=O)N(C[C@@]1(c3cc4nc(N(C)c5ccncc5)ccc4o3)NC(=O)NC1=O)C2 [Compound 2138] | 0.000881 |  |  | IC50 [2, 3]: 0.524 µM
10 | COc1ccc2c(c1)C(=O)N(C[C@@]1(c3cc4c(C(F)(F)F)nccc4o3)NC(=O)NC1=O)C2 [Compound 2270] | 0.000441 |  |  | IC50 [2, 3]: 1.07 µM
11 | COc1ccc2c(c1)C(=O)N(C[C@@]1(c3ccc(C(=O)NS(C)(=O)=O)cc3)NC(=O)NC1=O)C2 [Compound 2406] | 0.00538 |  | 7.11 | 
12 | COc1ccc2c(c1F)C(=O)N(C[C@@]1(c3cc4nc(-c5cn[nH]c5)ccc4o3)NC(=O)NC1=O)C2 [Compound 2121] | 0.000263 |  |  | IC50 [2, 3]: 0.102 µM
13 | COc1ccc2c(c1)C(=O)N(C[C@@]1(c3cc4ccc(OC)cc4o3)NC(=O)NC1=O)C2 [Compound 2187] | 0.000989 |  |  | IC50 [2, 3]: 4.03 µM
14 | COc1ccc2c(c1)C(=O)N(C[C@@]1(c3cc4c(o3)CCN(C(=O)N(C)C)C4)NC(=O)NC1=O)C2 [Compound 319] | 0.00183 | 0.501 |  | 
15 | COc1ccc2c(c1)C(=O)N(C[C@@]1(c3cc4[nH]c(=O)ccc4o3)NC(=O)NC1=O)C2 [Compound 2317] | 0.000375 |  | 0.542 | 
16 | COC(=O)NCCNc1nc2cc([C@]3(CN4Cc5ccc(OC)c(F)c5C4=O)NC(=O)NC3=O)oc2cc1F [Compound 1319] |  | 0.252 |  | 
17 | COC(=O)[C@H](CCCCNC(=O)c1cc2cc([C@]3(CN4Cc5ccc(OC)cc5C4=O)NC(=O)NC3=O)oc2cc1F)NC(=O)CCCC[C@@H]1SCC2NC(=O)NC21 (stereo partly drawn) [Compound 1282] | 0.00048 |  |  | IC50 [2, 3]: 0.407 µM
18 | COc1ccc2c(c1)C(=O)N(C[C@@]1(c3cc4cc(-c5nnc[nH]5)ccc4o3)NC(=O)NC1=O)C2 [Compound 2184] | 0.000355 |  |  | IC50 [2, 3]: 0.347 µM
19 | COc1ccc2c(c1)C(=O)N(C[C@@]1(c3cc4c(C(F)(F)F)nc(N)nc4o3)NC(=O)NC1=O)C2 [Compound 2305] | 0.000568 |  | 1.42 | 
20 | COc1ccc2c(c1)C(=O)N(C[C@@]1(c3cc4c(o3)CCN(C(=O)N(C)C)C4)NC(=O)NC1=O)C2 [Compound 2441] |  |  | 0.501 | 
21 | CCN1CCN(c2cc3cc([C@]4(CN5Cc6ccc(OC)cc6C5=O)NC(=O)NC4=O)oc3cn2)CC1 [Compound 308] |  | 0.343 |  | 
22 | COc1ccc2c(c1)C(=O)N(C[C@@]1(c3cc4ncc(C(=O)NCCN(C)C)cc4o3)NC(=O)NC1=O)C2 [Compound 1932] |  | 0.8 |  | 
23 | COCCNC(=O)c1cnc2cc([C@]3(CN4Cc5ccc(OC)cc5C4=O)NC(=O)NC3=O)oc2c1 [Compound 1933] |  | 0.657 |  | 
24 | CNC(=O)c1cnc2cc([C@]3(CN4Cc5ccc(OC)cc5C4=O)NC(=O)NC3=O)oc2c1 [Compound 1930] |  |  |  | Ki ([1]; Ki): 0.00087 µM
25 | COc1ccc2c(c1)C(=O)N(C[C@@]1(c3cc4nc(NC(=O)c5cccnc5)ccc4o3)NC(=O)NC1=O)C2 [Compound 2313] |  |  | 0.537 | 
26 | COc1ccc2c(c1)C(=O)N(C[C@@]1(c3ccc(-c4ccc(F)c(C#N)c4)cc3)NC(=O)NC1=O)C2 [Compound 1506] | 0.0064 |  |  | 
27 | CCN1CCN(c2ccc3oc([C@@]4(CN5Cc6ccc(OCC7CC7)c(F)c6C5=O)NC(=O)NC4=O)cc3n2)CC1 [Compound 901] | 0.501 |  |  | 
28 | CCOC(=O)[C@H]1CCC(=O)N1c1ccc2oc([C@]3(CN4Cc5ccc(OC)cc5C4=O)NC(=O)NC3=O)cc2n1 [Compound 1502] |  | 1.38 |  | 

Row | SMILES | Ki ([1]; read-out: Ki) [µM] | IC50 [2, 4] [µM] | IC50 [2, 5] [µM] | other results
29 | COc1ccc2c(c1)C(=O)N(C[C@@]1(c3cc4c(o3)CCN(S(C)(=O)=O)C4)NC(=O)NC1=O)C2 [Compound 2438] |  |  | 0.497 | 
30 | COc1ccc2c(c1)C(=O)N(C[C@@]1(c3cc4cnc(C#N)cc4o3)NC(=O)NC1=O)C2 [Compound 2444] |  |  | 0.759 | 
31 | COc1ccc2c(c1F)C(=O)N(C[C@]1(c3ccco3)NC(=O)NC1=O)C2 [Compound 312] | 0.501 |  |  | 
32 | COc1ccc2c(c1)C(=O)N(C[C@@]1(c3cc4nc(NC(=O)c5cccnc5)ccc4o3)NC(=O)NC1=O)C2 [Compound 1947] |  | 0.537 |  | 
33 | COc1ccc2c(c1)C(=O)N(C[C@@]1(c3cc4cc(N5CCNC5=O)ncc4o3)NC(=O)NC1=O)C2 [Compound 307] |  | 0.529 |  | 
34 | COc1ccc2c(c1)C(=O)N(C[C@@]1(c3cc4ncc(C(=NO)N5CCN(c6cnccn6)CC5)cc4o3)NC(=O)NC1=O)C2 [Compound 1935] |  | 0.546 |  | 
35 | COc1ccc2c(c1)C(=O)N(C[C@@]1(c3cc4c(o3)CCN(C(N)=O)C4)NC(=O)NC1=O)C2 [Compound 2440] |  |  | 0.646 | 
36 | CCN1CCN(C(=NO)c2cnc3cc([C@]4(CN5Cc6ccc(OC)cc6C5=O)NC(=O)NC4=O)oc3c2)CC1 [Compound 1934] |  | 0.342 |  | 
37 | CCOC(=O)NCc1ccc2oc([C@]3(CN4Cc5ccc(OC)cc5C4=O)NC(=O)NC3=O)cc2c1 [Compound 324] |  | 1.69 |  | 
38 | COCCN1CCN(c2ccc3oc([C@]4(CN5Cc6ccc(OC)cc6C5=O)NC(=O)NC4=O)cc3n2)CC1 [Compound 2160] |  |  |  | IC50 [2, 3]: 0.333 µM
39 | O=C1NC(=O)C(CN2Cc3ccccc3C2=O)(c2ccccc2)N1 (stereo not drawn) [Compound 1297] | 0.0164 |  |  | 
40 | COC(=O)CCNc1nc2cc([C@]3(CN4Cc5ccc(OC)c(F)c5C4=O)NC(=O)NC3=O)oc2cc1F [Compound 1921] |  | 0.239 |  | 
41 | CCOC(=O)N1CCc2cc([C@]3(CN4Cc5ccc(OC)cc5C4=O)NC(=O)NC3=O)oc2C1 [Compound 2439] |  |  | 0.704 | 
42 | COc1ccc2c(c1F)C(=O)N(C[C@@]1(c3cc4nc(C)c(-c5ccc(N)nc5)cc4o3)NC(=O)NC1=O)C2 [Compound 1919] |  |  |  | IC50 ([2]; read-out: hWBA (IC50), LPS-stimulated human whole blood, TNF-α by ELISA): 0.308 µM
43 | CNC(=O)c1cnc2cc([C@]3(CN4Cc5ccc(OC)cc5C4=O)NC(=O)NC3=O)oc2c1 [Compound 2461] |  |  |  | Ki ([1]; Ki): 0.000871 µM
44 | CCNC(=O)N1CCc2oc([C@]3(CN4Cc5ccc(OC)cc5C4=O)NC(=O)NC3=O)cc2C1 [Compound 2442] |  |  | 0.309 | 
45 | COc1ccc2c(c1)C(=O)N(C[C@@]1(c3cc4cc(CNC(=O)N(C)C)ccc4o3)NC(=O)NC1=O)C2 [Compound 326] |  | 1.23 |  | 
46 | COc1ccc2c(c1)C(=O)N(C[C@@]1(c3cc4ncc(C(=O)NCCN(C)C)cc4o3)NC(=O)NC1=O)C2 [Compound 2465] |  |  | 0.8 | 
47 | CCN1CCN(c2ccc(O)c(-c3ccc([C@]4(CN5Cc6ccc(OC)cc6C5=O)NC(=O)NC4=O)cc3)n2)CC1 [Compound 902] |  | 1.51 |  | 
48 | COc1ccc2c(c1F)C(=O)N(C[C@@]1(c3cc4cc(-c5c(C)nn(C)c5C)c(F)cc4o3)NC(=O)NC1=O)C2 [Compound 1182] | 0.00041 |  |  | 
49 | COc1ccc2c(c1)C(=O)N(C[C@@]1(c3cc4nc(NS(C)(=O)=O)ccc4o3)NC(=O)NC1=O)C2 [Compound 2315] |  |  | 0.189 | 
50 | COc1ccc2c(c1)C(=O)N(C[C@@]1(c3cc4nc(-c5ccc(S(N)(=O)=O)cc5)ccc4o3)NC(=O)NC1=O)C2 [Compound 1528] |  | 2.69 |  | 
51 | COc1ccc2c(c1)C(=O)N(C[C@@]1(c3cc4nc(-c5ccc(S(N)(=O)=O)cc5)ccc4o3)NC(=O)NC1=O)C2 [Compound 2490] |  |  | 2.69 | 
52 | COc1ccc2c(c1F)C(=O)N(C[C@@]1(c3cc4cc5c(cc4o3)C(=O)NCCC5)NC(=O)NC1=O)C2 [Compound 2492] |  |  | 0.322 | 
53 | CCNC(=O)Nc1ccc2oc([C@]3(CN4Cc5ccc(OC)cc5C4=O)NC(=O)NC3=O)cc2n1 [Compound 2316] |  |  | 0.672 | 
54 | CCNC(=O)NCc1ccc2oc([C@]3(CN4Cc5ccc(OC)cc5C4=O)NC(=O)NC3=O)cc2c1 [Compound 325] |  | 1.99 |  | 
55 | COc1ccc2c(c1)C(=O)N(C[C@@]1(c3cc4c(o3)CCN(C(=O)Nc3cccnc3)C4)NC(=O)NC1=O)C2 [Compound 2443] |  |  | ≥ 1000 | 
